The text below walks through data of ChEMBL document CHEMBL3886406, “Substituted pyrrolo[2,3-b]pyridines as ITK and JAK inhibitors” (2015).

This test deals with T1, Tyrosine-protein kinase ITK/TSK (Homo sapiens, UniProt Q08881).
T1 sequence (Q08881 whole entry): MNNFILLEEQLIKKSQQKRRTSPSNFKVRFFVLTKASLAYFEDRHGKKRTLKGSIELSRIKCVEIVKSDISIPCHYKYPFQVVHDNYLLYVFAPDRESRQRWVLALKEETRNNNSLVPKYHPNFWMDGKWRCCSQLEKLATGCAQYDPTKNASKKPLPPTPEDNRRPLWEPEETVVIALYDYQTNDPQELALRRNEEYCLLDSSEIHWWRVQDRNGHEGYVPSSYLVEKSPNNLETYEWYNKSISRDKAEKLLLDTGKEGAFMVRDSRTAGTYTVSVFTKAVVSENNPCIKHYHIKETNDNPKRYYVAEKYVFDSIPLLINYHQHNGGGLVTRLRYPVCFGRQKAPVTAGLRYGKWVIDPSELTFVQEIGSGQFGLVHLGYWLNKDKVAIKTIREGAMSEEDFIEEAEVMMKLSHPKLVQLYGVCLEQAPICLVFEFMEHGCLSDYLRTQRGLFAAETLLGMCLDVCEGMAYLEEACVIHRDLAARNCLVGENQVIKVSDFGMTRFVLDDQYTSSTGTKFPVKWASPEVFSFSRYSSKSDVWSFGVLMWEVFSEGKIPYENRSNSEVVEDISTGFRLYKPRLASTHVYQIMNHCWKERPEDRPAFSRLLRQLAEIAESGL
Put plainly: Biochemical Inhibition Assay: 1H-pyrrolo[2,3-b]pyridine, 1H-pyrazolo[3,4-b]pyridine and 5H-pyrrolo[2,3-b]pyrazine series of compounds exhibited over >100 fold selective against Janus and TEC family of kinases except for the BMX and TXK it had activity of 30 and 45 nM respectively.

As for `C=CC(=O)Nc1cccc(-c2cnc3[nH]cc(C)c3c2)c1`, the concentration for half-maximal inhibition (IC50) entry is “in the range around 35 nM”.
For `C=CC(=O)Nc1cccc(-c2cnc3[nH]cc(-c4cccc(S(=O)(=O)N(CC)CC)c4)c3c2)c1` the value was “in the range around 35 nM”.
Take `C=CC(=O)Nc1cccc(-c2cnc3[nH]cc(-c4cccc(C)c4F)c3c2)c1`: the IC50 entry was “in the range around 72.4 nM”.
`C=CC(=O)Nc1cccc(-c2cnc3[nH]cc(Cl)c3c2)c1`: the IC50 result was “in the range around 35 nM”.
For `C=CC(=O)Nc1cccc(-c2cnc3[nH]cc(-c4cc5ccccc5[nH]4)c3n2)c1`, the IC50 entry was “in the range around 35 nM”.
